Laboratory results from patent US9358023B2, “Systems and methods for opening of a tissue barrier” (priority 2009, dated 2016).
“Also recorded” adds a separate entry of the source.

Legend:
blood-brain barrier [1] = assay: FUS and microbubble BBB opening: fluorescent dextran delivery to the sonicated hippocampus, quantified as NOD;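 note: male wild-type C57BL/6 mice, left hippocampus sonicated with untargeted right hippocampus as control, read by fluorescence microscopy of frozen horizontal brain sections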
blood-brain barrier [2] = conditions: mouse
[3] = PL 3.5 cycles, PRF 6.25 kHz, BRF 0.1 Hz, BL 1000 pulses, pressure 0.51
[4] = PL 3.5 cycles, PRF 6.25 kHz, BRF 1 Hz, BL 1000 pulses, pressure 0.51
[5] = PL 3.5 cycles, PRF 6.25 kHz, BRF 2 Hz, BL 1000 pulses, pressure 0.51
[6] = PL 3.5 cycles, PRF 6.25 kHz, BRF 5 Hz, BL 1000 pulses, pressure 0.51
[7] = PL 3.5 cycles, PRF 6.25 kHz, pulses emitted continuously without bursts, pressure 0.51
[8] = PL 3.5 cycles, PRF 25 kHz, BRF 0.1 Hz, BL 1000 pulses, pressure 0.51
[9] = PL 3.5 cycles, PRF 25 kHz, BRF 1 Hz, BL 1000 pulses, pressure 0.51
[10] = PL 3.5 cycles, PRF 25 kHz, BRF 2 Hz, BL 1000 pulses, pressure 0.51
[11] = PL 3.5 cycles, PRF 25 kHz, BRF 5 Hz, BL 1000 pulses, pressure 0.51
[12] = PL 3.5 cycles, PRF 25 kHz, BRF 10 Hz, BL 1000 pulses, pressure 0.51
[13] = PL 3.5 cycles, PRF 25 kHz, pulses emitted continuously without bursts, pressure 0.51
[14] = PL 3.5 cycles, PRF 100 kHz, BRF 0.1 Hz, BL 1000 pulses, pressure 0.51
[15] = PL 3.5 cycles, PRF 100 kHz, BRF 1 Hz, BL 1000 pulses, pressure 0.51
[16] = PL 3.5 cycles, PRF 100 kHz, BRF 2 Hz, BL 1000 pulses, pressure 0.51
[17] = PL 3.5 cycles, PRF 100 kHz, BRF 5 Hz, BL 1 pulse, pressure 0.51
[18] = PL 3.5 cycles, PRF 100 kHz, BRF 5 Hz, BL 5 pulses, pressure 0.51
[19] = PL 3.5 cycles, PRF 100 kHz, BRF 5 Hz, BL 10 pulses, pressure 0.51
[20] = PL 3.5 cycles, PRF 100 kHz, BRF 5 Hz, BL 50 pulses, pressure 0.51
[21] = PL 3.5 cycles, PRF 100 kHz, BRF 5 Hz, BL 100 pulses, pressure 0.51
[22] = PL 3.5 cycles, PRF 100 kHz, BRF 5 Hz, BL 500 pulses, pressure 0.51
[23] = PL 3.5 cycles, PRF 100 kHz, BRF 5 Hz, BL 1000 pulses, pressure 0.13
[24] = PL 3.5 cycles, PRF 100 kHz, BRF 5 Hz, BL 1000 pulses, pressure 0.25
[25] = PL 3.5 cycles, PRF 100 kHz, BRF 5 Hz, BL 1000 pulses, pressure 0.37
[26] = PL 3.5 cycles, PRF 100 kHz, BRF 5 Hz, BL 1000 pulses, pressure 0.51
[27] = PL 3.5 cycles, PRF 100 kHz, BRF 10 Hz, BL 1000 pulses, pressure 0.51
[28] = PL 3.5 cycles, PRF 100 kHz, pulses emitted continuously without bursts, pressure 0.51
[29] = microbubble 0.01 μL/g, PRF 10 Hz, PL 20 ms, 0.46 MPa, 11-minute sonication
[30] = microbubble 0.05 μL/g injected over 180 seconds, PRF 5 Hz, PL 0.2 ms, 0.46 MPa
[31] = microbubble 0.05 μL/g, PRF 0.1 Hz, PL 20 ms, 0.46 MPa, 11-minute sonication
[32] = microbubble 0.05 μL/g, PRF 1 Hz, PL 20 ms, 0.46 MPa, 11-minute sonication
[33] = microbubble 0.05 μL/g, PRF 5 Hz, PL 0.2 ms, 0.46 MPa, 11-minute sonication
[34] = microbubble 0.05 μL/g, PRF 5 Hz, PL 20 ms, 0.46 MPa, 11-minute sonication
[35] = microbubble 0.05 μL/g, PRF 10 Hz, PL 0.03 ms, 0.46 MPa, 11-minute sonication
[36] = microbubble 0.05 μL/g, PRF 10 Hz, PL 0.1 ms, 0.46 MPa, 11-minute sonication
[37] = microbubble 0.05 μL/g, PRF 10 Hz, PL 0.2 ms, 0.46 MPa, 11-minute sonication
[38] = microbubble 0.05 μL/g, PRF 10 Hz, PL 1 ms, 0.46 MPa, 11-minute sonication
[39] = microbubble 0.05 μL/g, PRF 10 Hz, PL 2 ms, 0.46 MPa, 11-minute sonication
[40] = microbubble 0.05 μL/g, PRF 10 Hz, PL 10 ms, 0.46 MPa, 11-minute sonication
[41] = microbubble 0.05 μL/g, PRF 10 Hz, PL 20 ms, 0.46 MPa, 11-minute sonication
[42] = microbubble 0.05 μL/g, PRF 10 Hz, PL 20 ms, 0.46 MPa, microbubble and dextran 1 minute before a 30-second sonication
[43] = microbubble 0.05 μL/g, PRF 10 Hz, PL 30 ms, 0.46 MPa, 11-minute sonication
[44] = microbubble 0.05 μL/g, PRF 25 Hz, PL 20 ms, 0.46 MPa, 11-minute sonication
[45] = microbubble 0.25 μL/g, PRF 10 Hz, PL 20 ms, 0.46 MPa, 11-minute sonication
[46] = sham mouse, no ultrasound applied, microbubble 0.05 μL/g

Molecule: dextran
- increase in NOD (significance) (blood-brain barrier [1]; 100-kHz PRF, 5-Hz BRF, 0.51 MPa, 1000 pulse BL): Significant increases
- Incidence of NOD increase (blood-brain barrier [1]; [3]): 2/3
- NOD (mean ± std. dev.) (blood-brain barrier [1]; [3]): 0.68 ± 0.47 × 1e9
- Incidence of NOD increase (blood-brain barrier [1]; [4]): 2/3
- NOD (mean ± std. dev.) (blood-brain barrier [1]; [4]): 0.78 ± 0.85 × 1e9
- Incidence of NOD increase (blood-brain barrier [1]; [5]): 1/3
- NOD (mean ± std. dev.) (blood-brain barrier [1]; [5]): −0.16 ± 0.67 × 1e9
- Incidence of NOD increase (blood-brain barrier [1]; [6]): 2/3
- NOD (mean ± std. dev.) (blood-brain barrier [1]; [6]): 0.56 ± 0.95 × 1e9
- Incidence of NOD increase (blood-brain barrier [1]; [7]): 1/3
- NOD (mean ± std. dev.) (blood-brain barrier [1]; [7]): −0.11 ± 0.35 × 1e9
- Incidence of NOD increase (blood-brain barrier [1]; [8]): 2/3
- NOD (mean ± std. dev.) (blood-brain barrier [1]; [8]): 0.35 ± 0.10 × 1e9
- Incidence of NOD increase (blood-brain barrier [1]; [9]): 3/3
- NOD (mean ± std. dev.) (blood-brain barrier [1]; [9]): 1.92 ± 0.10 × 1e9
- Incidence of NOD increase (blood-brain barrier [1]; [10]): 3/3
- NOD (mean ± std. dev.) (blood-brain barrier [1]; [10]): 3.34 ± 1.35 × 1e9
- Incidence of NOD increase (blood-brain barrier [1]; [11]): 3/3
- NOD (mean ± std. dev.) (blood-brain barrier [1]; [11]): 1.48 ± 0.77 × 1e9
- Incidence of NOD increase (blood-brain barrier [1]; [12]): 2/3
- NOD (mean ± std. dev.) (blood-brain barrier [1]; [12]): 1.31 ± 1.35 × 1e9
- Incidence of NOD increase (blood-brain barrier [1]; [13]): 1/3
- NOD (mean ± std. dev.) (blood-brain barrier [1]; [13]): 0.30 ± 0.20 × 1e9
- Incidence of NOD increase (blood-brain barrier [1]; [14]): 2/3
- NOD (mean ± std. dev.) (blood-brain barrier [1]; [14]): 0.99 ± 0.85 × 1e9
- Incidence of NOD increase (blood-brain barrier [1]; [15]): 3/3
- NOD (mean ± std. dev.) (blood-brain barrier [1]; [15]): 1.45 ± 0.73 × 1e9
- Incidence of NOD increase (blood-brain barrier [1]; [16]): 3/3
- NOD (mean ± std. dev.) (blood-brain barrier [1]; [16]): 3.08 ± 2.76 × 1e9
- Incidence of NOD increase (blood-brain barrier [1]; [17]): 0/3
- NOD (mean ± std. dev.) (blood-brain barrier [1]; [17]): 0.01 ± 0.11 × 1e9
- Incidence of NOD increase (blood-brain barrier [1]; [18]): 1/3
- NOD (mean ± std. dev.) (blood-brain barrier [1]; [18]): 0.13 ± 0.17 × 1e9
- Incidence of NOD increase (blood-brain barrier [1]; [19]): 3/3
- NOD (mean ± std. dev.) (blood-brain barrier [1]; [19]): 2.14 ± 1.33 × 1e9
- Incidence of NOD increase (blood-brain barrier [1]; [20]): 3/3
- NOD (mean ± std. dev.) (blood-brain barrier [1]; [20]): 2.20 ± 0.54 × 1e9
- Incidence of NOD increase (blood-brain barrier [1]; [21]): 3/3
- NOD (mean ± std. dev.) (blood-brain barrier [1]; [21]): 3.60 ± 0.95 × 1e9
- Incidence of NOD increase (blood-brain barrier [1]; [22]): 3/3
- NOD (mean ± std. dev.) (blood-brain barrier [1]; [22]): 3.30 ± 0.58 × 1e9
- Incidence of NOD increase (blood-brain barrier [1]; [23]): 1/3
- NOD (mean ± std. dev.) (blood-brain barrier [1]; [23]): 0.10 ± 0.21 × 1e9
- Incidence of NOD increase (blood-brain barrier [1]; [24]): 1/3
- NOD (mean ± std. dev.) (blood-brain barrier [1]; [24]): 0.10 ± 0.16 × 1e9
- Incidence of NOD increase (blood-brain barrier [1]; [25]): 2/3
- NOD (mean ± std. dev.) (blood-brain barrier [1]; [25]): 0.60 ± 0.48 × 1e9
- Incidence of NOD increase (blood-brain barrier [1]; [26]): 3/3
- NOD (mean ± std. dev.) (blood-brain barrier [1]; [26]): 6.14 ± 1.45 × 1e9
- Incidence of NOD increase (blood-brain barrier [1]; [27]): 3/3
- NOD (mean ± std. dev.) (blood-brain barrier [1]; [27]): 2.01 ± 1.44 × 1e9
- Incidence of NOD increase (blood-brain barrier [1]; [28]): 1/3
- NOD (mean ± std. dev.) (blood-brain barrier [1]; [28]): 0.21 ± 0.32 × 1e9
- spatial distribution of delivered dextran fluorescence in the target ROI (blood-brain barrier [1]; bursts of 3.5-cycle pulses, 100-kHz PRF, 5-Hz BRF, 0.51 MPa, 1000 pulse BL, listed as 3-kDa dextran): distributed most homogeneously and across a larger area than the other two molecular weights; also recorded: homogeneous and diffuse spatial distribution
- NOD (mean ± std. dev.) (blood-brain barrier [1]; [29]): 2.89 ± 1.99 × 1e9
- Number of mice with delivered dextran (blood-brain barrier [1]; [29]): 5/5
- NOD (mean ± std. dev.) (blood-brain barrier [1]; [30]): 1.58 ± 1.37 × 1e9
- Number of mice with delivered dextran (blood-brain barrier [1]; [30]): 5/5
- NOD (mean ± std. dev.) (blood-brain barrier [1]; [31]): −0.17 ± 0.17 × 1e9
- Number of mice with delivered dextran (blood-brain barrier [1]; [31]): 0/5
- NOD (mean ± std. dev.) (blood-brain barrier [1]; [32]): 3.77 ± 4.52 × 1e9
- Number of mice with delivered dextran (blood-brain barrier [1]; [32]): 3/5
- NOD (mean ± std. dev.) (blood-brain barrier [1]; [33]): 2.02 ± 1.38 × 1e9
- Number of mice with delivered dextran (blood-brain barrier [1]; [33]): 5/5
- NOD (mean ± std. dev.) (blood-brain barrier [1]; [34]): 4.21 ± 2.05 × 1e9
- Number of mice with delivered dextran (blood-brain barrier [1]; [34]): 5/5
- NOD (mean ± std. dev.) (blood-brain barrier [1]; [35]): 0.78 ± 1.41 × 1e9
- Number of mice with delivered dextran (blood-brain barrier [1]; [35]): 2/5
- NOD (mean ± std. dev.) (blood-brain barrier [1]; [36]): 1.20 ± 1.05 × 1e9
- Number of mice with delivered dextran (blood-brain barrier [1]; [36]): 5/6
- NOD (mean ± std. dev.) (blood-brain barrier [1]; [37]): 0.98 ± 0.67 × 1e9
- Number of mice with delivered dextran (blood-brain barrier [1]; [37]): 5/5
- NOD (mean ± std. dev.) (blood-brain barrier [1]; [38]): 4.07 ± 3.71 × 1e9
- Number of mice with delivered dextran (blood-brain barrier [1]; [38]): 5/5
- NOD (mean ± std. dev.) (blood-brain barrier [1]; [39]): 1.84 ± 1.44 × 1e9
- Number of mice with delivered dextran (blood-brain barrier [1]; [39]): 4/5
- NOD (mean ± std. dev.) (blood-brain barrier [1]; [40]): 4.76 ± 2.03 × 1e9
- Number of mice with delivered dextran (blood-brain barrier [1]; [40]): 5/5
- NOD (mean ± std. dev.) (blood-brain barrier [1]; [41]): 4.45 ± 2.08 × 1e9
- Number of mice with delivered dextran (blood-brain barrier [1]; [41]): 5/5
- NOD (mean ± std. dev.) (blood-brain barrier [1]; [42]): 4.91 ± 0.94 × 1e9
- Number of mice with delivered dextran (blood-brain barrier [1]; [42]): 5/5
- NOD (mean ± std. dev.) (blood-brain barrier [1]; [43]): 5.77 ± 1.73 × 1e9
- Number of mice with delivered dextran (blood-brain barrier [1]; [43]): 5/5
- NOD (mean ± std. dev.) (blood-brain barrier [1]; [44]): 4.58 ± 1.40 × 1e9
- Number of mice with delivered dextran (blood-brain barrier [1]; [44]): 5/5
- NOD (mean ± std. dev.) (blood-brain barrier [1]; [45]): 5.34 ± 2.12 × 1e9
- Number of mice with delivered dextran (blood-brain barrier [1]; [45]): 5/5
- NOD (mean ± std. dev.) (blood-brain barrier [1]; [46]): 0.01 ± 0.23 × 1e9
- Number of mice with delivered dextran (blood-brain barrier [1]; [46]): 0/5

B1: Neurturin: neurotrophic factor neurturin (NTN) (protein, UniProt Q99748 96-197, looked up)
Neurturin: ARLGARPCGLRELEVRVSELGLGYASDETVLFRYCAGACEAAARVYDLGLRRLRQRRRLRRERVRAQPCCRPTAYEDEVSFLDAHSRYHTVHELSARECACV
- permeation through the FUS-opened BBB into the parenchyma (blood-brain barrier [2]): permeating through the opened barrier and into the parenchyma

B2: GDNF: glia-derived neurotrophic factor (protein, UniProt P39905 78-211, looked up)
Glial cell line-derived …: SPDKQMAVLPRRERNRQAAAANPENSRGKGRRGQRGKNRGCVLTAIHLNVTDLGLGYETKEELIFRYCSGSCDAAETTYDKILKNLSRNRRLVSDKVGQACCRPIAFDDDLSFLDDNLVYHILRKHSAKRCGCI
- permeation through the FUS-opened BBB into the parenchyma (blood-brain barrier [2]): does not
- fluorescence post-mortem in brain, kidneys, liver, bladder or testes (blood-brain barrier [2]; in vivo): no fluorescence was found
- time within which the protein may be broken down in circulation (blood-brain barrier [2]; in vivo): ≤ 45 s
